The numbers were not newly measured in US20190321435A1, “ACORUS GRAMINEUS AS A PHARMACOLOGICALLY ACTIVE NATURAL TREATMENT IN THE ADDICTION OF NICOTINE” (priority 2018, published 2019), which cites them from elsewhere.

The conditions of series [1]: cited from earlier work.
Series [2] concerns intravenous self-administration (IVSA) of nicotine. Particulars: rodents; high-dose (Rauhut et al., 2003); cited from earlier work.

For the compound `CN1CCc2cccc3c2[C@H]1Cc1ccc(O)c(O)c1-3` [apomorphine], the “adverse effect of intravenous administration” value in series [1] (administered intravenously) was “crystallization of the drug and lead to thrombus formation and pulmonary embolism”. In addition, the first-pass hepatic metabolism result in series [1] (oral administration (swallowing)) is on record as “significant first-pass hepatic metabolism”.

For the compound `CC(NC(C)(C)C)C(=O)c1cccc(Cl)c1` (stereo not drawn) [bupropion], the self-administration of nicotine result in series [2] is listed as “reduce self-administration of nicotine”.
